{"source": "patent US10327423B2", "about": "“Antimicrobial compounds and compositions, and uses thereof” (Akeso Biomedical, Inc., priority 2014, dated 2019)", "key": {"[1]": {"tested_on": "Campylobacter jejuni NCTC 11168 (wildtype and strain carrying a kanamycin resistance gene)", "assay": "Patch test on growth plates with Fe-QA and kanamycin", "type": "cell-based", "text": "The wildtype C. jejuni grew normally, and was not affected by FeQ. A patch was also immersed in a solution of kanamycin and Fe-QA, and placed on a growth plate of wildtype C. jejuni. The growth of C. jejuni was impacted showing that wildtype C. jejuni is sensitive to the presence of kanamycin.\nThe patch experiments were repeated with a Campylobacter jejuni NCTC 11168 strain carrying a kanamycin resistance gene wherein patches were immersed in (i) kanamycin only, (ii) Fe-QA only, and (iii) kanamycin and Fe-QA. The growth of the C. jejuni strain carrying the kanamycin resistance gene was not impacted by the patches immersed in (i) kanamycin and (ii) Fe-QA, however, the growth was impacted by the patch that was immersed in both kanamycin and Fe-QA."}, "H. pylori strain 17875": {"tested_on": "H. pylori strain 17875", "assay": "Binding of I-125 labelled Le^b to H. pylori (bound/free)", "parameters": "species or system Helicobacter pylori", "conditions": "increasing Fe-QA concentration; pH 7.4", "protocol": "Binding of Le^b to H. pylori strain 17875 at pH 7.4 was assayed by labeling Le^b with radioactive iodine (1-125), mixing the radioactive antigen with H. pylori bacteria, pelletizing the bacteria using a centrifuge, and measuring the radioactivity in the pellet and in the supernatant. Any Le^b that is bound to the bacteria is quantified by the measurement of radioactivity in the pellet. The ratio of the radioactivity in the pellet to the supernatant therefore corresponds to the ratio of Le^b bound by the bacteria to that which remains unbound, expressed as bound/free."}, "[2]": {"tested_on": "Pseudomonas aeruginosa PAO-1", "assay": "Biofilm coverage rate on glass slides (SYTO17, laser scanning microscopy)", "type": "cell-based", "conditions": "Fe-QA 100 μM; 72 hours", "protocol": "(§1) Pseudomonas aeruginosa PAO-1, and a clinically isolated uropathogenic Escherichia coli UPEC-536 were routinely grown on either LB (Luria-Bertani, Oxoid, UK) agar plates at 37° C. or in broth at 37° C. with 200 rpm shaking. UV-sterilized glass slides were incubated in either 15 mL RPMI-1640 defined medium (Sigma, UK) or 15 mL RPMI-1640 with Fe-QA inoculated with diluted (OD600=0.01) bacteria from overnight cultures at 37° C. with 60 rpm shaking for 72 hours. The slides were removed from bacterial culture and washed with 15 mL phosphate buffered saline at room temperature for 5 minutes three times and then rinsed with distilled H2O. After washing, the slides were stained with 20 μM SYTO17 dye (Invitrogen, UK) at room temperature for 30 minutes. After removing excess staining dye and air-drying, the samples were examined using a Carl Zeiss LSM 700 Laser Scanning Microscope with ZEN 2009 imaging software (Carl Zeiss, Germany). The coverage rate of bacteria on the surface was analysed using open source Image J 1.44 software (National Institute of Health, US)."}, "[3]": {"tested_on": "uropathogenic Escherichia coli UPEC-536", "assay": "Biofilm coverage rate on glass slides (SYTO17, laser scanning microscopy)", "type": "cell-based", "conditions": "Fe-QA 0.1 μM, 1 μM, aM and 100 μM; 72 hours", "protocol": "as §1"}, "[4]": {"tested_on": "Enteropathogenic E. coli (EPEC) E2348/69", "assay": "Crystal violet assay of attachment to plastic wells", "type": "cell-based, Escherichia coli", "conditions": "FeQ 100 μM; 48 hours at 37° C.", "protocol": "(§2) Enteropathogenic E. coli (EPEC) E2348/69 were grown in wells for 48 hours at 37° C. in the presence of FeQ (100 μM), and in the absence of FeQ (as control). After 48 hours, the wells were washed in order to remove suspended cells. Crystal violet was then added to each well. The wells were then washed to remove excess dye. A mixture of acetone/ethanol was then added to the wells to re-suspend any cells attached to the plastic surface of the wells, and dissolve any dye present. The presence of dye in each well was then quantified by measuring the O.D. at 570 nm.\nas §2, with “FeDOPA (10-250” for “FeQ (100”, “FeDOPA” for “FeQ”"}, "C. jejuni NCTC 11168": {"tested_on": "C. jejuni NCTC 11168", "assay": "ELISA of C. jejuni binding to histo-blood group antigens (BgAgs)", "parameters": "species or system Campylobacter jejuni", "conditions": "for binding of C. jejuni to Le^b and H-II after growth in medium with Fe-QA: washed away before ELISA, one and four passages", "protocol": "Binding of C. jejuni NCTC 11168 to the BgAgs (common ABO histo-blood group antigens), Le^b and H-II was measured after growing the bacteria in a medium that has either Fe-QA at 0.34 mM or 3.4 mM. The binding is measured by washing away the Fe-Q containing medium prior to testing the bacteria by ELISA as described below. Binding was measured after one passage and four passages (4 generations) with Fe-QA included in the medium, and compared to a control without Fe-QA.\nThe ELISA was performed as follows: BSA-BgAg conjugates were obtained from IsoSep, Tullinge, Sweden. Coupling of BgAgs to 96-well plates (NUNC Immobilizer Amino) was carried out by the addition of 100 μl BSA-BgAg (5 μg/ml unless stated otherwise) in sodium carbonate buffer to each well. Plates were incubated at room temperature for 2 h before unbound reagent was removed by washing three times in PBS-T. All wells were blocked by the addition of […] 1% BSA/PBS and incubated for 2 h at room temperature. After further washing in PBS-T, […] of DIG-tagged bacteria (at OD600 of 0.05) were added to each well and incubated overnight at 4° C. Plates were washed three times in PBS-T before […] anti-digoxigenin-POD solution (Roche Diagnostics; 1 in 5000 diluted in 1% BSA/PBS) was added and incubated for 1 h at room temperature. Plates were again vigorously washed in PBS-T and color developed by adding 100 μl ABTS substrate (Roche). Plates were read with an ELISA reader (Biotek EL800) at an absorbance of 405 nm. Specific binding was determined by subtracting the binding of each strain to BSA (typically OD405 0.07-0.09) from the binding to each BSA-BgAg conjugate. Inhibition assays shown in FIG. 4B were carried out as above but after the removal of the blocking solution, DIG-labeled C. jejuni was pre-incubated for 4 h with an Fe-QA solution (0.34 mM) before being added to each well."}}, "note": "Entries after “also recorded” stand apart in the source; their conditions may differ."}
{"smiles": "O=C1[O][Fe]23([O]C(=O)[C@]4(C[C@@H](O)[C@H](O)[C@H](O)C4)[O]2)([O]C(=O)[C@]2(C[C@@H](O)[C@H](O)[C@H](O)C2)[O]3)[O][C@@]12C[C@@H](O)[C@H](O)[C@H](O)C2", "note": "[FeQ, a complex of quinic acid with Fe III]", "values": [{"measurement": "growth on plate around patch", "setting": "[1]; strain carrying kanamycin resistance gene, patch with Fe-QA only", "result": "not impacted"}, {"measurement": "growth on plate around patch", "setting": "[1]; strain carrying kanamycin resistance gene, patch with kanamycin and Fe-QA", "result": "retarded; also recorded: impacted"}, {"measurement": "growth on plate around patch", "setting": "[1]; wildtype C. jejuni (no kanamycin resistance gene), patch with Fe-QA alone", "result": "not affected"}, {"measurement": "growth on plate around patch", "setting": "[1]; wildtype C. jejuni, patch with kanamycin and Fe-QA", "result": "impacted"}, {"measurement": "competitive inhibition of Le^b binding to H. pylori (bound/free Le^b)", "setting": "H. pylori strain 17875", "result": "increasingly inhibits binding"}, {"measurement": "biofilm formation (coverage rate on glass slide)", "setting": "[2]", "result": "inhibits"}, {"measurement": "biofilm formation (coverage rate on glass slide)", "setting": "[3]", "result": "inhibits"}, {"measurement": "attachment of EPEC cells to plastic well surface and biofilm formation (crystal violet, O.D. 570 nm)", "setting": "[4]", "result": "little or no attachment of bacterial cells to the surface and no biofilm formation"}, {"measurement": "binding of C. jejuni to Le^b and H-II after growth in medium with Fe-QA", "setting": "C. jejuni NCTC 11168; Fe-QA 0.34 mM in medium", "result": "statistically significant decrease"}, {"measurement": "binding of C. jejuni to Le^b and H-II after growth in medium with Fe-QA", "setting": "C. jejuni NCTC 11168; Fe-QA 3.4 mM in medium", "result": "marked decrease in binding"}, {"measurement": "inhibition of binding of C. jejuni 11168 to BgAgs (Core-I, Core-II, H-I, H-II, Leb, Ley, Lex)", "setting": "C. jejuni NCTC 11168; bacteria pre-incubated 4 h with Fe-QA 0.34 mM", "result": "significant inhibition of binding"}]}
